Results as given in publication PMC9939304 (Acta Pharmaceutica Sinica. B, 2022).
Read-outs that look alike come from different tables or passages of the source. Marks after values point to notes of the source that are not given here.

Tests used:
OCT2 protein [1] = test: OCT2 protein expression in Caco-2 cells; format: cell-based, human; details: 48 h; for Expressions of OCT2 protein, 5 bile salts tested: CDCA 100, CA 100, DCA 50, HDCA 100, GCA 100 μmol/L; for Expressions of OCT2 protein by FXR agonists: CDCA 100, bilirubin 50, GW4064 1 μmol/L
rat kidney slices = test: Uptake of metformin by precision-cut kidney slices; format: in vitro ADME; details: metformin 50 μg/mL, 15 min, 37 °C; slices from BDL rats
[2] = oral metformin 40 mg/kg
Oct2/3 [3] = details: Sham rats
Oct2/3 [4] = target: T1, Oct2/3 (Rattus norvegicus, UniProt Q9R0W2); details: corticosterone 5 mg/kg ip, normal rats; iv metformin 10 mg/kg
T1 sequence (Q9R0W2 1-555): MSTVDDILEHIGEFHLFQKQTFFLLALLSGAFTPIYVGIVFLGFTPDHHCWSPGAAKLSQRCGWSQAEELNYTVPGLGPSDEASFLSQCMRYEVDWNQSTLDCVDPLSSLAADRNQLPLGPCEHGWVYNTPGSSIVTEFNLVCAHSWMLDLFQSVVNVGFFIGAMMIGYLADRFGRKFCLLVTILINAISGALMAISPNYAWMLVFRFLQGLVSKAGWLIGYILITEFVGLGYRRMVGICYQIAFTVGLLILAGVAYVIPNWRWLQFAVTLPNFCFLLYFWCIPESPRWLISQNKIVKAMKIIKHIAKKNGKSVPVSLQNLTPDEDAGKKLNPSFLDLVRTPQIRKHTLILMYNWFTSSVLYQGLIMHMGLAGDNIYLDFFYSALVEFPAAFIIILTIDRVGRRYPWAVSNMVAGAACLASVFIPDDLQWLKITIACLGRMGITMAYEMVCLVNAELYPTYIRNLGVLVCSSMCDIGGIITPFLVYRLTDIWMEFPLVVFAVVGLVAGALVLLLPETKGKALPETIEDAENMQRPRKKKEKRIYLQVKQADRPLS

OCT2 protein [5] = test: OCT2 protein expression in HK-2 cells; format: cell-based, human; details: 48 h; for Expressions of OCT2 protein by FXR agonists: CDCA 100, bilirubin 50, GW4064 1 μmol/L
OCT1 protein [6] = test: OCT1 protein expression in HepG2 cells; format: cell-based, human; details: for Concentration-dependent effect on expressions of OCT1 protein: 48 h, CDCA 25, 50, 100 μmol/L, bilirubin 1, 10, 50 μmol/L
Oct1 protein [7] = test: Oct1 protein expression in primarily cultured rat hepatocytes; format: cell-based; details: for Expressions of Oct1 protein: CDCA, bilirubin or GW4064
Oct2 protein [8] = test: Oct2 protein expression in primarily cultured rat hepatocytes; format: cell-based; details: for Expressions of Oct2 protein: CDCA, bilirubin or GW4064
FXR [9] = target: T2, FXR (Homo sapiens, UniProt Q96RI1); format: cell-based; details: HK-2 cells
T2 sequence (Q96RI1 1-486): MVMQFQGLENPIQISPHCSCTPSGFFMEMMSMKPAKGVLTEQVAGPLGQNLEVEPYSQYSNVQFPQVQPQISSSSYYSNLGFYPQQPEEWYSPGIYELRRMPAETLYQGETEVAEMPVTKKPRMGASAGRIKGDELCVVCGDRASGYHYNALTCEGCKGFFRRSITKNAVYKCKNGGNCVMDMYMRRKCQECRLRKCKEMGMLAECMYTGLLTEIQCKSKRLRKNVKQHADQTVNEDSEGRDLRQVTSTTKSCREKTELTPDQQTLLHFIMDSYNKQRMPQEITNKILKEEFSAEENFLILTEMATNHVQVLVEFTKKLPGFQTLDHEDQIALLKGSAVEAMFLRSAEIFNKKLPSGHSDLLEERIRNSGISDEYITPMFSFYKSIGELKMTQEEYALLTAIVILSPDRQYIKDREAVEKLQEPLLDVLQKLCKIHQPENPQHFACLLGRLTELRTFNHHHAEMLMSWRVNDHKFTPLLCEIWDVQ

FXR protein = FXR protein expression in HK-2 cells; format: cell-based, human
FXR [10] = target: T2, FXR; format: cell-based; details: HepG2 cell
Oct2 = format: in vivo, rat; details: stigmasterol 200 mg/kg qd plus CDCA 180 mg/kg qd oral, 14 days
[11] = format: in vivo, rat; details: stigmasterol 200 mg/kg qd plus CDCA 180 mg/kg qd oral, 14 days
Mate1 = test: Renal Mate1 protein expression in treated rats; format: in vivo, rat; details: 14 days: CDCA 180 mg/kg qd oral
Oct3 = target: T3, Oct3 (Rattus norvegicus, UniProt O88446); details: estradiol 1 μmol/L with metformin 50 μg/mL; Sham rats
T3 sequence (O88446 1-551): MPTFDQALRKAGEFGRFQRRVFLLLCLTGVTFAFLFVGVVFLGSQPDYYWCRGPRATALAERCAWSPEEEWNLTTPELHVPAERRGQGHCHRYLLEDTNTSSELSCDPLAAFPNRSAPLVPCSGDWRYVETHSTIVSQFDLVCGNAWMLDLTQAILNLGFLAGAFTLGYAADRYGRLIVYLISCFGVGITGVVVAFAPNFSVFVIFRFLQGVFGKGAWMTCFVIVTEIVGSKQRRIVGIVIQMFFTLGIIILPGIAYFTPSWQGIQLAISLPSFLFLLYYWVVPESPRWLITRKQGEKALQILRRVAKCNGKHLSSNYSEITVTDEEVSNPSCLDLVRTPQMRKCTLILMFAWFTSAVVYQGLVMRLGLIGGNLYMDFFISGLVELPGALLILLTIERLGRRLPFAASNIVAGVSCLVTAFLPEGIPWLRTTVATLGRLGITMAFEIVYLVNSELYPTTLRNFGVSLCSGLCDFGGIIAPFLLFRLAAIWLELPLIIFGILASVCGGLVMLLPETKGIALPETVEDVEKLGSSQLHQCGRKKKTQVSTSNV

Oct1 = Oct1 (Rattus norvegicus, UniProt Q63089); test: in vitro; details: probe metformin (100 μmol/L)
[12] = thiamine 20 μg/mL perfusion
[13] = endogenous thiamine; BDL rats
[14] = CON rats of CDCA study (Table S5)

Chain of Oct1 (Q63089 whole entry, the tested form may be a part): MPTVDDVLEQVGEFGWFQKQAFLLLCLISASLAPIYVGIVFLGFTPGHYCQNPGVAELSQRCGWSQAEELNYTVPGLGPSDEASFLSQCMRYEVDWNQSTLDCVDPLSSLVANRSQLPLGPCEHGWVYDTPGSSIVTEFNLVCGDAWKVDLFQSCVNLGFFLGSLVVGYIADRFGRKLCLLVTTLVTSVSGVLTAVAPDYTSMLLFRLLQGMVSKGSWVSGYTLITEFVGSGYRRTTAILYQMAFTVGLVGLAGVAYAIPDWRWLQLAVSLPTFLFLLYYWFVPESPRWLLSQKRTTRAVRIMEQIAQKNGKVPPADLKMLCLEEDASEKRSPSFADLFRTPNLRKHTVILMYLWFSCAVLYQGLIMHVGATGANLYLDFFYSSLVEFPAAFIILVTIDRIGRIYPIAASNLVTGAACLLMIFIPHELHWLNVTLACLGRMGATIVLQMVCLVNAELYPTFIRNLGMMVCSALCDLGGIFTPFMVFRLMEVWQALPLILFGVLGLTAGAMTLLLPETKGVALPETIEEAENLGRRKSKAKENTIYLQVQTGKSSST

For `C[C@H](CCC(=O)O)[C@H]1CC[C@H]2[C@@H]3C[C@H](O)[C@@H]4C[C@H](O)CC[C@]4(C)[C@H]3CC[C@]12C` [HDCA, Hyodeoxycholic acid], the “Expressions of OCT2 protein, 5 bile salts tested” value (“Expressions … 5 bile salts tested” for short) (OCT2 protein [1]) was “only CDCA remarkably induces”.

In the case of `CN(C)C(=N)N=C(N)N` [metformin], the “Uptake of metformin in renal slice, BDL vs Sham” value (rat kidney slices) is reported as “significantly increases”, the V1 (BDL rat, same value as Sham) is reported as 102.99 mL and the V1 (Sham rat, 250 g, estimated from original data) is reported as 102.99 ^j mL. For the same molecule, the AUC ([2]; CDCA-treated rats (Table S5)) was 906.85 ± 52.16 µg·min/mL, the Cmax ([2]; CDCA-treated rats (Table S5)) was 4360 ± 380 ng/mL and the AUC [2, 14] was 707.20 ± 30.01 µg·min/mL. It also gave a Cmax [2, 14] of 3190 ± 120 ng/mL.

For `C[C@]12C[C@H](O)[C@H]3[C@@H](CCC4=CC(=O)CC[C@@]43C)[C@@H]1CC[C@@H]2C(=O)CO` [corticosterone], the “Intestinal absorption (Peff) of metformin with inhibitor” value (Oct2/3 [3]; corticosterone 4 μmol/L with metformin 50 μg/mL) was 60 % of control rats, the “Effect on Peff values of thiamine” value (Oct2/3 [3]; corticosterone 4 μmol/L with thiamine 20 μg/mL) was “significantly decrease” and the “In vivo hepatic uptake clearance of metformin with corticosterone” value (Oct2/3 [4]) was 50 % of CON rats.

In the case of `C=CC1=C(C)/C(=C/c2[nH]c(Cc3[nH]c(/C=C4\NC(=O)C(C)=C4C=C)c(C)c3CCC(=O)O)c(CCC(=O)O)c2C)NC1=O` [bilirubin], the “Expressions of OCT2 protein by FXR agonists” value (“Expressions … by FXR agonists” below) (OCT2 protein [5]) is reported as “increase expressions of OCT2 protein”, the “Concentration-dependent effect on expressions of OCT1 protein” value (OCT1 protein [6]) is reported as “concentration-dependently downregulate” and the “Expressions of Oct1 protein” value (Oct1 protein [7]) is reported as “downregulate expressions of Oct1 protein”. For the same molecule, the “Expressions of Oct2 protein” value (Oct2 protein [8]) was “upregulate expressions of Oct2 protein”, the “Expressions of SHP and FGF19 mRNA” value (FXR [9]) was “significantly upregulate” and the “Expressions of FXR protein” value (FXR protein) was “can induce”.

With `CC[C@H](/C=C/[C@@H](C)[C@H]1CC[C@H]2[C@@H]3CC=C4C[C@@H](O)CC[C@]4(C)[C@H]3CC[C@]12C)C(C)C` [stigmasterol] the “Effect on upregulation of SHP and FGF19 mRNA by CDCA” value (FXR [10]; co-administration of stigmasterol with CDCA) was “significantly reversed”, the “mRNA expressions of SHP and FGF19, stigmasterol alone” value (FXR [10]; stigmasterol 100 μmol/L) was “little affects” and the “Effect on the increased expressions of intestinal Oct2 protein by CDCA” value (Oct2) was “attenuates”. For the same molecule, the “Effect on CDCA-induced increase in levels of blood thiamine” value [11] was “attenuated”.

In the case of `C[C@H](CCC(=O)O)[C@H]1CC[C@H]2[C@@H]3[C@H](O)C[C@@H]4C[C@H](O)CC[C@]4(C)[C@H]3CC[C@]12C` [CDCA, chenodeoxycholic acid], the “Concentration-dependent effect on expressions of OCT2” value (OCT2 protein [1]; CDCA 25, 50, 100 μmol/L, bilirubin 10, 25, 50 μmol/L) is reported as “concentration-dependently increase”, the “Expressions … 5 bile salts tested” value (OCT2 protein [1]) is reported as “remarkably induces” and the “Expressions … by FXR agonists” value (OCT2 protein [1]) is reported as “induce expressions of OCT2 protein”. The “Expressions … by FXR agonists” value (OCT2 protein [5]) was “increase expressions of OCT2 protein”, the “Concentration-dependent effect on expressions of OCT1 protein” value (OCT1 protein [6]) was “concentration-dependently downregulate” and the “Expressions of Oct1 protein” value (Oct1 protein [7]) was “downregulate expressions of Oct1 protein”. For the same molecule, the “Expressions of Oct2 protein” value (Oct2 protein [8]) was “upregulate expressions of Oct2 protein” and the “Expressions of renal Mate1 protein in treated rats” value (Mate1) was “unaltered”.

In the case of `CC(C)c1onc(-c2c(Cl)cccc2Cl)c1COc1ccc(/C=C/c2cccc(C(=O)O)c2)c(Cl)c1` [GW4064], the “Expressions … by FXR agonists” value (OCT2 protein [1]) is reported as “induce expressions of OCT2 protein”, the “Expressions … by FXR agonists” value (OCT2 protein [5]) is reported as “increase expressions of OCT2 protein” and the “Expressions of OCT1 protein” value (OCT1 protein [6]; GW4064) is reported as “also downregulates”. For the same molecule, the “Expressions of Oct1 protein” value (Oct1 protein [7]) was “downregulate expressions of Oct1 protein” and the “Expressions of Oct2 protein” value (Oct2 protein [8]) was “upregulate expressions of Oct2 protein”.

With `C[C@]12CC[C@@H]3c4ccc(O)cc4CC[C@H]3[C@@H]1CC[C@@H]2O` [estradiol] the “Effect on Peff of metformin” value (Oct3) was “does not affect”.

In the case of `C[C@H](CCC(=O)NCC(=O)O)[C@H]1CC[C@H]2[C@@H]3[C@H](O)C[C@@H]4C[C@H](O)CC[C@]4(C)[C@H]3C[C@H](O)[C@]12C` [GCA, Glycocholic acid], the “Expressions … 5 bile salts tested” value (OCT2 protein [1]) is reported as “only CDCA remarkably induces”.

In the case of `C[C@H](CCC(=O)O)[C@H]1CC[C@H]2[C@@H]3[C@H](O)C[C@@H]4C[C@H](O)CC[C@]4(C)[C@H]3C[C@H](O)[C@]12C` [CA, Cholic acid], the “Expressions … 5 bile salts tested” value (OCT2 protein [1]) is reported as “only CDCA remarkably induces”.

For `C[C@H](CCC(=O)O)[C@H]1CC[C@H]2[C@@H]3CC[C@@H]4C[C@H](O)CC[C@]4(C)[C@H]3C[C@H](O)[C@]12C` [DCA, Eeoxycholic acid], the “Expressions … 5 bile salts tested” value (OCT2 protein [1]) was “only CDCA remarkably induces”.

Work on `NCCc1ccc(O)c(O)c1` [dopamine] yielded an inhibition at 1.5 min, 20 μmol/L (Oct1; primary hepatocytes from BDL rats) of 25.2% and an inhibition at 1.5 min, 20 μmol/L (Oct1; primary hepatocytes from Sham rats) of 58.7%.

For `Cc1ncc(C[n+]2csc(CCO)c2C)c(N)n1` [thiamine], the “Peff values of thiamine in BDL rats vs Sham” value [12] was “significantly decrease” and the “Urinary excreted amount of thiamine during 6 h, BDL relative to Sham” value [13] was 187 % of Sham rats.

With `C[C@H](CCC(=O)NCC(=O)O)[C@H]1CC[C@H]2[C@@H]3[C@@H](O)[C@@H](O)[C@@H]4C[C@H](O)CC[C@]4(C)[C@H]3CC[C@]12C` [MCA, glycine-β-muricholic acid] the “Effect on induction of OCT2 protein by bilirubin, CDCA and GW4064” value (OCT2 protein [1]; MCA 100 μmol/L) was “remarkably attenuated”, the “Effect on increase of OCT2 protein by CDCA, bilirubin and GW4064” value (OCT2 protein [5]; MCA 100 μmol/L) was “reversed” and the “Effect on decreases in OCT1 by CDCA, bilirubin and GW4064” value (OCT1 protein [6]; MCA) was “remarkably reversed”. The “Effect on downregulation of Oct1 protein by CDCA, bilirubin and GW4064” value (Oct1 protein [7]; MCA) was “remarkably attenuated”, the “Effect on upregulation of Oct2 protein by CDCA, bilirubin and GW4064” value (Oct2 protein [8]; MCA) was “remarkably attenuated” and the “Expressions of FGF19 mRNA” value (FXR [9]; MCA) was “slight inhibits”. The “Expressions of SHP mRNA” value (FXR [9]; MCA) was “significantly downregulates”.
